Data from patent US20250346600A1, “TRICYCLIC DERIVATIVES AND RELATED USES” (MOMA Therapeutics, Inc., priority 2023, published 2025).
Where two headings read alike, the source gives them in different places.

What was measured:
[1] = target: T1, Full length WRN protein (aa 2-1432) (Homo sapiens (Human), UniProt Q14191); assay: WRN ATPase ADP-Glo biochemical assay, Assay Format A (10 μM ATP); conditions: 0.25 nM WRN, 100 nM C6.18 ssDNA, 30 min preincubation, read-out: ATPase ADPGlo AC50 (uM)- Assay Format A
T1 sequence (Q14191 2-1432): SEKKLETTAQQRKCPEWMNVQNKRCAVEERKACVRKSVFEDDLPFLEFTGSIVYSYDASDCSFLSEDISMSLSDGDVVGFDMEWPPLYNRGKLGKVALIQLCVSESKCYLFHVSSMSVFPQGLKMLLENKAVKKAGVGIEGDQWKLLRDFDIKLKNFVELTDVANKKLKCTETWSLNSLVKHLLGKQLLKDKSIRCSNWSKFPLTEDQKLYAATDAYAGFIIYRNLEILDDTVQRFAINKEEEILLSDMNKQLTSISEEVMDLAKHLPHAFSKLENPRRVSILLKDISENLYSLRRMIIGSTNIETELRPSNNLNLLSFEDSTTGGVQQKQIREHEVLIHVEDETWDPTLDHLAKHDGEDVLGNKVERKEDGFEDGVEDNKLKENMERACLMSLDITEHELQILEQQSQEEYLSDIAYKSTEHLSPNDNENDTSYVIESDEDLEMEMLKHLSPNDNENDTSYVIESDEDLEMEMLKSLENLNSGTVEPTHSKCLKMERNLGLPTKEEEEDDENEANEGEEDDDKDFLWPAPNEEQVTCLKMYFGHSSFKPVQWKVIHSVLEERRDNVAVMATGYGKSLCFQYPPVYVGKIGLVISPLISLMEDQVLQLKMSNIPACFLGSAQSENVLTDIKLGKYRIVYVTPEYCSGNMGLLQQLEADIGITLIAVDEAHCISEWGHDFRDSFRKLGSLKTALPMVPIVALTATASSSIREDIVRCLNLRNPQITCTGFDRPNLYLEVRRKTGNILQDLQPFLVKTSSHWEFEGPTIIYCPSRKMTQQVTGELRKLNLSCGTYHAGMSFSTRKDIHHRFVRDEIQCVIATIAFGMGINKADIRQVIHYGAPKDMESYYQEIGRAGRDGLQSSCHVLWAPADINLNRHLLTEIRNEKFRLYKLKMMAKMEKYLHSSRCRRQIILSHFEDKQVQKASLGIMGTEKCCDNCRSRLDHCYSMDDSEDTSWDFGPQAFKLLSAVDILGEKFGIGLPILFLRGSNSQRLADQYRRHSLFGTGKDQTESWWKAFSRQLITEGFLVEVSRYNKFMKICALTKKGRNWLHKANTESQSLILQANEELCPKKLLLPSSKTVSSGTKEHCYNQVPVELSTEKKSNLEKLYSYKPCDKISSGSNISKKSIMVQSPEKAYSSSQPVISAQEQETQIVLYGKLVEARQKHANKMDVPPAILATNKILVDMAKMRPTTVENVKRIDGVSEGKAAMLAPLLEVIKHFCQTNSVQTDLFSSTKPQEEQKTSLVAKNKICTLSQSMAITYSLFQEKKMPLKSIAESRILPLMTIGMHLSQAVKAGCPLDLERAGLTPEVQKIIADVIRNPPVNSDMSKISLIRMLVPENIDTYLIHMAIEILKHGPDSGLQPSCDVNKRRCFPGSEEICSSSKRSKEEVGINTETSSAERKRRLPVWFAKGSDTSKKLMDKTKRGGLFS
How it was run: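 ADP-Glo luminescence measured hydrolysis of ATP by purified, baculovirus-expressed N-terminally tagged full-length WRN. Enzyme (0.5 nM) was preincubated 30 min with compound, then 200 nM ssDNA C6.18 plus 20 μM ATP were added (pre-mix levels) for 30 min at RT. IC50s come from four-parameter fits, geometric mean of at least two trials.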

[2] = target: T1, Full length WRN protein (aa 2-1432); assay: WRN ATPase ADP-Glo biochemical assay, Assay Format B (100 μM ATP); conditions: 0.25 nM WRN, 100 nM C6.18 ssDNA, 60 min preincubation, read-out: ATPase ADPGlo AC50 (uM)- Assay Format B
[3] = test system: HCT116 cells; assay: HCT116 (MSI) 7 day viability, CellTiter Glo; type: cell-based; conditions: 7 days, read-out: HCT116 (MSI) Viability 7 Day Abs AC50
How it was run: (§1)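 10 mM DMSO stocks serially diluted 3-fold, 10 steps; cells added (HCT116 50/well, HT29 500/well); 7 d, 37 °C, 5% CO2; CellTiter Glo 20 min RT; luminescence.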

[4] = test system: HT29 cells; assay: HT29 (MSS) 7 day viability, CellTiter Glo; type: cell-based; conditions: 7 days, read-out: HT29 (MSS) Viability 7 Day CTGAbs AC50
How it was run: as §1

Row | Structure (SMILES) | AC50 [1] [µM] | AC50 [2] [µM] | AC50 ([3]; Homo sapiens, HCT-116, 168 h) [nM] | AC50 ([4]; Homo sapiens, HT-29, 168 h) [nM] | AC50 [3] [nM] | AC50 [4] [nM]
1 | C=CC(=O)N1CCc2nn(-c3ccc(C4CCC4)cc3O)c3c2C(C1)N(C(=O)c1ccc2c(Br)n[nH]c2c1)CC3 (stereo not drawn) [Compound 24, 1-(5-(3-bromo-1H-indazole-6-carbonyl)-2-(4-cyclobutyl-2-hydroxyphenyl)-2,3,4,5,5a,6,8,9-octahydro-7H-1,2,5,7-tetraazabenzo[cd]azulen-7-yl)prop-2-en-1-one] | < 0.0015 | 0.005 to 0.015 | 1 to 100 | > 3000 |  | 
2 | C=CC(=O)N1CCc2nn(-c3ccc(C4CCC4)cc3O)c3c2C(C1)N(C(=O)c1cnc(C(F)(F)F)c(O)c1)CC3 (stereo not drawn) [Compound 25, 1-(2-(4-cyclobutyl-2-hydroxyphenyl)-5-(5-hydroxy-6-(trifluoromethyl)nicotinoyl)-2,3,4,5,5a,6,8,9-octahydro-7H-1,2,5,7-tetraazabenzo[cd]azulen-7-yl)prop-2-en-1-one] | < 0.0015 | 0.005 to 0.015 | 1 to 100 | > 3000 |  | 
3 | C=CC(=O)N1CCc2nn(-c3ccc(C4CCC4)cc3)c3c2C(C1)N(C(=O)c1cnc(C(F)(F)F)c(O)c1)CC3 (stereo not drawn) [Compound 26, 1-(2-(4-cyclobutylphenyl)-5-(5-hydroxy-6-(trifluoromethyl)nicotinoyl)-2,3,4,5,5a,6,8,9-octahydro-7H-1,2,5,7-tetraazabenzo[cd]azulen-7-yl)prop-2-en-1-one] | < 0.0015 | 0.005 to 0.015 | 1 to 100 | > 3000 |  | 
4 | C=CC(=O)N1CC(OC)c2nn(-c3ccc(C4CCC4)cc3)c3c2C(C1)N(C(=O)c1ccc(Br)c2[nH]cnc12)CC3 (stereo not drawn) [Compound 27, 1-(5-(7-bromo-1H-benzo[d]imidazole-4-carbonyl)-2-(4-cyclobutylphenyl)-9-methoxy-2,3,4,5,5a,6,8,9-octahydro-7H-1,2,5,7-tetraazabenzo[cd]azulen-7-yl)prop-2-en-1-one] | < 0.0015 | 0.0015 to 0.005 | 1 to 100 | > 3000 |  | 
5 | C=CC(=O)N1CC(F)c2nn(-c3ccc(C4CCC4)cc3)c3c2C(C1)N(C(=O)c1ccc(Br)c2[nH]cnc12)CC3 (stereo not drawn) [Compound 28, 1-(5-(7-bromo-1H-benzo[d]imidazole-4-carbonyl)-2-(4-cyclobutylphenyl)-9-fluoro-2,3,4,5,5a,6,8,9-octahydro-7H-1,2,5,7-tetraazabenzo[cd]azulen-7-yl)prop-2-en-1-one] | < 0.0015 | 0.0015 to 0.005 | 1 to 100 | 1000 to 3000 |  | 
6 | C=CC(=O)N1CCc2nn(-c3ccc(C45CC(C4)C5)nc3)c3c2C(C1)N(C(=O)c1ccc(Br)c2[nH]cnc12)CC3 (stereo not drawn) [Compound 29, 1-(2-(6-(bicyclo[1.1.1]pentan-1-yl)pyridin-3-yl)-5-(7-bromo-1H-benzo[d]imidazole-4-carbonyl)-2,3,4,5,5a,6,8,9-octahydro-7H-1,2,5,7-tetraazabenzo[cd]azulen-7-yl)prop-2-en-1-one] | 0.015 to 0.055 | > 0.055 | 100 to 250 | > 3000 |  | 
7 | C=CC(=O)N1CCc2nn(-c3ccc(C45CC(C4)C5)cc3F)c3c2C(C1)N(C(=O)c1ccc(Br)c2[nH]cnc12)CC3 (stereo not drawn) [Compound 30, 1-(2-(4-(bicyclo[1.1.1]pentan-1-yl)-2-fluorophenyl)-5-(7-bromo-1H-benzo[d]imidazole-4-carbonyl)-2,3,4,5,5a,6,8,9-octahydro-7H-1,2,5,7-tetraazabenzo[cd]azulen-7-yl)prop-2-en-1-one] | < 0.0015 | 0.005 to 0.015 | 1 to 100 | > 3000 |  | 
8 | C=CC(=O)N1CC(C)c2nn(-c3ccc(C(C)C)cc3O)c3c2C(C1)N(C(=O)c1ccc(Br)c2[nH]cnc12)CC3 (stereo not drawn) [Compound 31, 1-(5-(7-bromo-1H-benzo[d]imidazole-4-carbonyl)-2-(2-hydroxy-4-isopropylphenyl)-9-methyl-2,3,4,5,5a,6,8,9-octahydro-7H-1,2,5,7-tetraazabenzo[cd]azulen-7-yl)prop-2-en-1-one] | 0.0015 to 0.005 | 0.015 to 0.055 |  | > 3000 | 250 to 500 | 
9 | C=CC(=O)N1CC(C)c2nn(-c3ccc(C(C)C)cc3O)c3c2C(C1)N(C(=O)c1ccc(Br)c2[nH]cnc12)CC3 (stereo not drawn) [Compound 32, 1-(5-(7-bromo-1H-benzo[d]imidazole-4-carbonyl)-2-(2-hydroxy-4-isopropylphenyl)-9-methyl-2,3,4,5,5a,6,8,9-octahydro-7H-1,2,5,7-tetraazabenzo[cd]azulen-7-yl)prop-2-en-1-one] | < 0.0015 | 0.005 to 0.015 |  |  | 1 to 100 | > 3000
10 | C=CC(=O)N1CC(C)c2nn(-c3ccc(C(C)C)cc3)c3c2C(C1)N(C(=O)c1ccc(Br)c2[nH]cnc12)CC3 (stereo not drawn) [Compound 33, 1-(5-(7-bromo-1H-benzo[d]imidazole-4-carbonyl)-2-(4-isopropylphenyl)-9-methyl-2,3,4,5,5a,6,8,9-octahydro-7H-1,2,5,7-tetraazabenzo[cd]azulen-7-yl)prop-2-en-1-one] | 0.0015 to 0.005 | 0.005 to 0.015 |  | > 3000 | 1 to 100 | 
11 | C=CC(=O)N1CC(C)c2nn(-c3ccc(C(C)C)cc3)c3c2C(C1)N(C(=O)c1ccc(Br)c2[nH]cnc12)CC3 (stereo not drawn) [Compound 34, 1-(5-(7-bromo-1H-benzo[d]imidazole-4-carbonyl)-2-(4-isopropylphenyl)-9-methyl-2,3,4,5,5a,6,8,9-octahydro-7H-1,2,5,7-tetraazabenzo[cd]azulen-7-yl)prop-2-en-1-one] | 0.0015 to 0.005 | 0.005 to 0.015 |  |  | 250 to 500 | > 3000
12 | C=CC(=O)N1CCc2nc(-c3ccc(C(C)C)cc3)n3c2C(C1)N(C(=O)c1ccc(Br)c2[nH]cnc12)CC3 (stereo not drawn) [Compound 38, 1-(5-(7-bromo-1H-benzo[d]imidazole-4-carbonyl)-2-(4-isopropylphenyl)-4,5,5a,6,8,9-hexahydro-1,2a,5,7-tetraazabenzo[cd]azulen-7(3H)-yl)prop-2-en-1-one] | < 0.0015 | 0.005 to 0.015 | 1 to 100 | > 3000 |  | 
13 | C=CC(=O)N1CCOc2nn(-c3ccc(C4CCC4)cc3O)c3c2C(C1)N(C(=O)c1ccc(Br)c2[nH]cnc12)CC3 (stereo not drawn) [Compound 39, 1-(5-(7-bromo-1H-benzo[d]imidazole-4-carbonyl)-2-(4-cyclobutyl-2-hydroxyphenyl)-2,3,4,5,5a,6,8,9-octahydro-7H-10-oxa-1,2,5,7-tetraazacycloocta[cd]inden-7-yl)prop-2-en-1-one] | 0.0015 to 0.005 | 0.015 to 0.055 | 1 to 100 | > 3000 |  | 
14 | C=CC(=O)N1CCOc2nn(-c3ccc(C4CCC4)cc3O)c3c2C(C1)N(C(=O)c1ccc2c(Br)n[nH]c2c1)CC3 (stereo not drawn) [Compound 40, 1-(5-(3-bromo-1H-indazole-6-carbonyl)-2-(4-cyclobutyl-2-hydroxyphenyl)-2,3,4,5,5a,6,8,9-octahydro-7H-10-oxa-1,2,5,7-tetraazacycloocta[cd]inden-7-yl)prop-2-en-1-one] | < 0.0015 | 0.015 to 0.055 | 1 to 100 | > 3000 |  | 
15 | C=CC(=O)N1CCOc2nn(-c3ccc(C4CCC4)cc3)c3c2C(C1)N(C(=O)c1ccc(Br)c2[nH]cnc12)CC3 (stereo not drawn) [Compound 41, 1-(5-(7-bromo-1H-benzo[d]imidazole-4-carbonyl)-2-(4-cyclobutylphenyl)-2,3,4,5,5a,6,8,9-octahydro-7H-10-oxa-1,2,5,7-tetraazacycloocta[cd]inden-7-yl)prop-2-en-1-one] | 0.0015 to 0.005 | 0.015 to 0.055 | 1 to 100 | > 3000 |  | 
16 | C=CC(=O)N1CCOc2nn(-c3ccc(C4CCC4)cc3)c3c2C(C1)N(C(=O)c1ccc(Br)c2[nH]ncc12)CC3 (stereo not drawn) [Compound 42, 1-(5-(7-bromo-1H-indazole-4-carbonyl)-2-(4-cyclobutylphenyl)-2,3,4,5,5a,6,8,9-octahydro-7H-10-oxa-1,2,5,7-tetraazacycloocta[cd]inden-7-yl)prop-2-en-1-one] | < 0.0015 | 0.005 to 0.015 | 1 to 100 | > 3000 |  | 
17 | C=CC(=O)N1CCOc2nn(-c3ccc(C45CC(C4)C5)cc3)c3c2C(C1)N(C(=O)c1ccc(Br)c2[nH]cnc12)CC3 (stereo not drawn) [Compound 43, 1-(2-(4-(bicyclo[1.1.1]pentan-1-yl)phenyl)-5-(7-bromo-1H-benzo[d]imidazole-4-carbonyl)-2,3,4,5,5a,6,8,9-octahydro-7H-10-oxa-1,2,5,7-tetraazacycloocta[cd]inden-7-yl)prop-2-en-1-one] | < 0.0015 | 0.005 to 0.015 | 1 to 100 | > 3000 |  | 
18 | C=CC(=O)N1CCOc2nn(-c3ccc(C(C)C)cc3O)c3c2C(C1)N(C(=O)c1ccc(Br)c2[nH]cnc12)CC3 (stereo not drawn) [Compound 44, 1-(5-(7-bromo-1H-benzo[d]imidazole-4-carbonyl)-2-(2-hydroxy-4-isopropylphenyl)-2,3,4,5,5a,6,8,9-octahydro-7H-10-oxa-1,2,5,7-tetraazacycloocta[cd]inden-7-yl)prop-2-en-1-one] | < 0.0015 | 0.005 to 0.015 | 1 to 100 | > 3000 |  | 
